For one series, the system named is JMAR, MDA-MB-231, SKMEL-28, DRO81-1 and MRC-5 cells.
Test: not given
Conditions: not given
Turning to `CC(=O)OCC1=C(C)C[C@H]([C@@H](C)[C@H]2CC[C@H]3[C@@H]4C[C@@H](O)C5=CC=CC(=O)[C@]5(COC(C)=O)[C@H]4CC[C@]23C)OC1=O` [Compound 18], the “Cytotoxic activity in words” value is “abolished”.

With `CC1=C(CO)C(=O)O[C@@H]([C@@H](C)[C@H]2CC[C@H]3[C@@H]4C[C@H]5O[C@]56[C@@H](OC(=O)c5ccc(Cl)cc5)C=CC(=O)[C@]6(CO)[C@H]4CC[C@]23C)C1` [Compound 10], the “Cytotoxic activity in words” value was “active”. `CC(=O)OCC1=C(C)C[C@H]([C@@H](C)[C@H]2CC[C@H]3[C@@H]4C[C@H]5O[C@]56CC=CC(=O)[C@]6(COC(C)=O)[C@H]4CC[C@]23C)OC1=O` [Compound 17, Jaborosalactone V diacetate]: the “Cytotoxic activity in words” value is “equipotent to withaferin A”. With `CC1=C(COC(=O)c2ccc(Cl)cc2)C(=O)O[C@@H]([C@@H](C)[C@H]2CC[C@H]3[C@@H]4C[C@H]5O[C@]56[C@@H](O)C=CC(=O)[C@]6(COC(=O)c5ccc(Cl)cc5)[C@H]4CC[C@]23C)C1` [Compound 11], the “Cytotoxic activity in words” value is given as “active”.

In the case of `CC1=C(CO)C(=O)O[C@@H]([C@@H](C)[C@H]2CC[C@H]3[C@@H]4C[C@H]5O[C@]56[C@@H](O)C=C(I)C(=O)[C@]6(CO)[C@H]4CC[C@]23C)C1` [Compound 21], the “Cytotoxic activity in words” value is listed as “very weak activity”.

Take `CC(=O)OCC1=C(C)C[C@H]([C@@H](C)[C@H]2CC[C@H]3[C@@H]4C[C@H]5O[C@]56[C@@H](OC(=O)N(C)C)C=CC(=O)[C@]6(COC(C)=O)[C@H]4CC[C@]23C)OC1=O` [Compound 15]: the “Increased cytotoxicity compared to 1” value is given as 3–5 times.

The test system is the same in another series. The series is described as follows: cells. The note with it: read-out: IC50 values against melanoma and carcinoma cells.
By IC50 is commonly meant the midpoint of a concentration-inhibition curve. Regarding `CC(=O)OCC1=C(C)C[C@H]([C@@H](C)[C@H]2CC[C@H]3[C@@H]4C[C@@H](O)[C@@]5(Cl)CC=CC(=O)[C@]5(COC(C)=O)[C@H]4CC[C@]23C)OC1=O` [Compound 19], the IC50 lay in the range of 800 to 2160 nM.

Still in this series, the particulars now being: read-out: IC50 values over all cell lines tested.
`CC(=O)OCC1=C(C)C[C@H]([C@@H](C)[C@H]2CC[C@H]3[C@@H]4C[C@@H](O)C5=CC=CC(=O)[C@]5(COC(C)=O)[C@H]4CC[C@]23C)OC1=O` [Compound 18]: the half-maximal inhibitory concentration (IC50) was above 10000 nM. Consider `CC1=C(COC(=O)c2ccc(Cl)cc2)C(=O)O[C@@H]([C@@H](C)[C@H]2CC[C@H]3[C@@H]4C[C@H]5O[C@]56[C@@H](OC(=O)c5ccc(Cl)cc5)C=CC(=O)[C@]6(COC(=O)c5ccc(Cl)cc5)[C@H]4CC[C@]23C)C1` [Compound 13], for which the IC50 was above 10000 nM.

Take `CCC(=O)OCC1=C(C)C[C@H]([C@@H](C)[C@H]2CC[C@H]3[C@@H]4C[C@H]5O[C@]56[C@@H](OC(=O)CC)C=CC(=O)[C@]6(COC(=O)CC)[C@H]4CC[C@]23C)OC1=O` [Compound 9, withalongolide A 4,19,27-propionate]: the IC50 lay within 130 to 1000 nM.

Turning to `CC1=C(COC(=O)c2ccc(Cl)cc2)C(=O)O[C@@H]([C@@H](C)[C@H]2CC[C@H]3[C@@H]4C[C@H]5O[C@]56[C@@H](OC(=O)c5ccc(Cl)cc5)C=CC(=O)[C@]6(CO)[C@H]4CC[C@]23C)C1` [Compound 12], the IC50 is above 10000 nM.

With `CC(=O)OC[C@]12C(=O)C=C[C@H](OC(=O)c3ccc(Cl)cc3)[C@]13O[C@@H]3C[C@H]1[C@@H]3CC[C@H]([C@H](C)[C@H]4CC(C)=C(COC(=O)c5ccc(Cl)cc5)C(=O)O4)[C@@]3(C)CC[C@@H]12` [Compound 16], the IC50 is above 10000 nM. For `CC(=O)OCC1=C(C)C[C@H]([C@@H](C)[C@H]2CC[C@H]3[C@@H]4C[C@@H](OC(C)=O)C5=CC=CC(=O)[C@]5(COC(C)=O)[C@H]4CC[C@]23C)OC1=O` [Compound 20], the IC50 was above 10000 nM. For `CC(=O)OCC1=C(C)C[C@H]([C@@H](C)[C@H]2CC[C@H]3[C@@H]4C[C@H]5O[C@]56[C@@H]5C=CC(=O)[C@]6(COC(=O)CC/C=C/CCC(=O)O5)[C@H]4CC[C@]23C)OC1=O` [Compound 24], the IC50 lay in the range of 205 to 965 nM.

The values above are taken from paper PMC3835334 (ACS medicinal chemistry letters, 2013).
